Data as given in patent publication US6914045B2, “Glycopeptide antibiotics” (Wyeth Holdings Corporation, priority 2001, dated 2005).
Converted amounts (≈) assume the structure as drawn. Numbered stars: 1 amine (or outer) side, 2 acyl side, 3 side chain; on linkers, the order of the positions; unused ones are H or OH. Square brackets hold non-standard residues; d marks the D form. Peptide text beside a SMILES is read from it. * marks the point of attachment. ξ: configuration not given here. X1 = N=C1NCC(C(O)C(N[*:1])C(=O)[*:2])N1C1OC(CO)C(O)C(O)C1O; ξEnduracididine(βξ-OH,4'ξ) = N=C1NCC(C(O)C(N)C(=O)O)N1; X2 = OCC1OC(OC2C(CO)OC(*)C(O)C2O)C(O)C(O)C1O; Cha = N[CH](CC1CCCCC1)C(=O)O

What was measured:
[1] = anatomic pathology (histopathology of heart and kidney) in mice; assay type: in vivo; conditions: CD-1 mice, 20 mg/kg intravenously daily for 9 days, necropsy day 10, microscopic histopathology
Description: Samples of tissues from necropsied mice were formalin-fixed, paraffin-embedded, sectioned, stained with hematoxylin and eosin, and examined microscopically. Histopathologic findings were recorded. These findings were subjectively graded on a scale corresponding to slight, mild, moderate, marked and severe as compared to untreated controls.

[2] = clinical pathology (serum clinical chemistry) in mice; assay type: in vivo; conditions: CD-1 mice, 20 mg/kg intravenously daily for 9 days, sera day 10
Description: 20-day-old CD-1 mice were divided into a vehicle control group (5 mice) and a treatment group (5 mice). Samples of glycopeptide antibiotics were administered at 20 mg/kg intravenously daily for 9 days.

[3] = system: Staphylococcus sp.; assay: in vitro antibacterial evaluation, MIC by broth dilution; assay type: cell-based; conditions: broth dilution, 18 hours at 35° C.
Outline: (§1)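 Step 1: dilute antibiotic across 64-0.06 μg/mL in Muller-Hinton II […]. Step 2: inoculate at 5×10^5 CFU/mL.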

[4] = system: Streptococcus sp.; assay: as above; assay type: cell-based; conditions: broth dilution, 18 hours at 35° C.
Outline: as §1

[5] = system: Enterococcus sp.; assay: as above; assay type: cell-based; conditions: broth dilution, 18 hours at 35° C.
Outline: as §1

[6] = system: Escherichia coli; assay: as above; assay type: cell-based; conditions: 18 hours at 35° C.
Outline: as §1

## N=C1NCC(C(O)C2NC(=O)C(Cc3ccc(OC4OC(CO)C(OC5OC(CO)C(O)C(O)C5O)C(O)C4O)cc3)NC(=O)C(CC3CCCCC3)NC(=O)CNC(=O)C(CO)NC(=O)C(C(O)C3CNC(=N)N3C3OC(CO)C(O)C(O)C3O)NC2=O)N1 (stereo not drawn) [Example 263, Cyclo[3-cyclohexylalanyl-O-(4-O-hexopyranosylhexopyranosyl)tyrosyl-3-(2-iminoimidazolidin-4-yl)seryl-3-(3-hexopyranosyl-2-iminoimidazolidin-4-yl)serylserylglycyl]] (cyclo(G[Cha]Y(X2)[ξEnduracididine(βξ-OH,4'ξ)][X1]S); configuration not given here)
[1]
  Anatomical Pathology (Day 10), Heart: +
  Anatomical Pathology (Day 10), Kidney: ++
[2]
  Clinical Chemistry (Day 10) % of Control, Creatinine: +116%
[3]
  MIC Coagulase Negative Staphylococcus (GC 4547): 64 µg/mL (≈ 49.7 µM)
  MIC Coagulase Negative Staphylococcus (GC 4548): 32 µg/mL (≈ 24.9 µM)
  MIC Coagulase Negative Staphylococcus (GC 4549): 16 µg/mL (≈ 12.4 µM)
  MIC Coagulase Negative Staphylococcus (GC 4551): 64 µg/mL (≈ 49.7 µM)
  MIC Staphylococcus aureus (ATCC 29213): 64 µg/mL (≈ 49.7 µM)
  MIC Staphylococcus aureus (GC 1131): 64 µg/mL (≈ 49.7 µM)
  MIC Staphylococcus aureus (GC 4541): 64 µg/mL (≈ 49.7 µM)
  MIC Staphylococcus aureus (GC 4542): 64 µg/mL (≈ 49.7 µM)
  MIC Staphylococcus aureus (GC 4544): >64 µg/mL
  MIC Staphylococcus aureus (GC 4545): 64 µg/mL (≈ 49.7 µM)
  MIC Staphylococcus aureus-SMITH (GC 4543): 32 µg/mL (≈ 24.9 µM)
  MIC Staphylococcus haemolyticus (GC 4546): 32 µg/mL (≈ 24.9 µM)
[3]; strain ATCC 29213
  MIC Staphylococcus aureus (ATCC 29213): 64 µg/mL (≈ 49.7 µM)
[3]; strain GC 1131
  MIC Staphylococcus aureus (GC 1131): 64 µg/mL (≈ 49.7 µM)
[3]; strain GC 4541
  MIC Staphylococcus aureus (GC 4541): 64 µg/mL (≈ 49.7 µM)
[3]; strain GC 4542
  MIC Staphylococcus aureus (GC 4542): 64 µg/mL (≈ 49.7 µM)
[3]; strain GC 4544
  MIC Staphylococcus aureus (GC 4544): >64 µg/mL
[3]; strain GC 4545
  MIC Staphylococcus aureus (GC 4545): 64 µg/mL (≈ 49.7 µM)
[3]; strain GC 4546
  MIC Staphylococcus haemolyticus (GC 4546): 32 µg/mL (≈ 24.9 µM)
[3]; strain GC 4547
  MIC Coagulase Negative Staphylococcus (GC 4547): 64 µg/mL (≈ 49.7 µM)
[3]; strain GC 4548
  MIC Coagulase Negative Staphylococcus (GC 4548): 32 µg/mL (≈ 24.9 µM)
[3]; strain GC 4549
  MIC Coagulase Negative Staphylococcus (GC 4549): 16 µg/mL (≈ 12.4 µM)
[3]; strain GC 4551
  MIC Coagulase Negative Staphylococcus (GC 4551): 64 µg/mL (≈ 49.7 µM)
[3]; strain SMITH GC 4543
  MIC Staphylococcus aureus-SMITH (GC 4543): 32 µg/mL (≈ 24.9 µM)
[4]; strain GC 4564
  MIC Streptococcus agalactiae (GC 4564): 32 µg/mL (≈ 24.9 µM)
[4]; strain ID-3187
  MIC Streptococcus pyogenes (ID-3187): 32 µg/mL (≈ 24.9 µM)
[5]; Enterococcus avium (GC 4558)
  MIC Enterococcus avium (GC 4558): >64 µg/mL
[5]; Enterococcus faecalis (ATCC 29212)
  MIC Enterococcus faecalis (ATCC 29212): >64 µg/mL
[5]; Enterococcus faecalis (GC 4553)
  MIC Enterococcus faecalis (GC 4553): >64 µg/mL
[5]; Enterococcus faecalis (GC 4554)
  MIC Enterococcus faecalis (GC 4554): >64 µg/mL
[5]; Enterococcus faecium (GC 2243)
  MIC Enterococcus faecium (GC 2243): >64 µg/mL
[5]; Enterococcus faecium (GC 4556)
  MIC Enterococcus faecium (GC 4556): >64 µg/mL
[5]; Enterococcus faecium (GC 4557)
  MIC Enterococcus faecium (GC 4557): 32 µg/mL (≈ 24.9 µM)
[5]; strain ATCC 29212
  MIC Enterococcus faecalis (ATCC 29212): >64 µg/mL
[5]; strain GC 2242
  MIC Enterococcus faecalis (GC 2242): >64 µg/mL
[5]; strain GC 2243
  MIC Enterococcus faecium (GC 2243): >64 µg/mL
[5]; strain GC 4552
  MIC Enterococcus faecalis (GC 4552): >64 µg/mL
[5]; strain GC 4553
  MIC Enterococcus faecalis (GC 4553): >64 µg/mL
[5]; strain GC 4554
  MIC Enterococcus faecalis (GC 4554): >64 µg/mL
[5]; strain GC 4556
  MIC Enterococcus faecium (GC 4556): >64 µg/mL
[5]; strain GC 4557
  MIC Enterococcus faecium (GC 4557): 32 µg/mL (≈ 24.9 µM)
[5]; strain GC 4558
  MIC Enterococcus avium (GC 4558): >64 µg/mL
[6]; Escherichia coli (ATCC 25922)
  MIC Escherichia coli (ATCC 25922): >64 µg/mL
[6]; Escherichia coli (GC 4559)
  MIC Escherichia coli (GC 4559): >64 µg/mL
[6]; Escherichia coli (GC 4560)
  MIC Escherichia coli (GC 4560): 16 µg/mL (≈ 12.4 µM)
